Data: US11072583B2, “Indole (sulfomyl) n-hydroxy benzamide derivatives as selective HDAC inhibitors” (COUNCIL OF SCIENTIFIC & INDUSTRIAL RESEARCH, priority 2017, dated 2021)
Where two headings read alike, the source gives them in different places.

Key:
Assay type in all cases: cell-based, human
[1] = test system: HeLa (Cervical cancer cell line); test: Anti-proliferative assay (Cell Titer-Glo), HeLa
[2] = test system: MCF-7 (Breast cancer cell line); test: Anti-proliferative assay (Cell Titer-Glo), MCF-7
[3] = test system: DU-145 (Prostate cancer cell line); test: Anti-proliferative assay (Cell Titer-Glo), DU-145
Experimental: Cell culture & Reagents: All cell lines, used for the anti-proliferative screen, were obtained from American Type Culture Collection (ATCC). HeLa (Cervical cancer cell line), MCF-7 (Breast cancer cell line) and DU-145 (Prostate cancer cell line) were cultured in Dulbecco's modified Eagle's medium (DMEM, GIBCO), containing 10% fetal bovine serum (FBS; Life Technologies), penicillin and streptomycin (10,000 U/mL), at 37° C. and in 5% CO2. Cell Titer-Glo® Luminescent Cell Viability Assay kit (Cat No. G7573) was purchased from Promega to determine the number of viable cells in culture based on quantitation of the ATP present, which signals the presence of metabolically active cells.
Anti-Proliferative assay: For anti-proliferative screening, 2500 cells per well (For HeLa and DU-145 cell lines) and 5000 cells per well (for MCF-7 cell line) numbers of cells were seeded in a white opaque plate and incubated for 24 Hrs in 5% CO2 incubator at 37° C. After 24 Hrs, compound dilutions were prepared as per the required concentrations in cell culture medium (DMEM) and diluted compounds were added and incubated with cells for 72 Hrs at 37° C. in 5% CO2 incubator in the same 96 well-plate. After 72 Hrs, Cell Titer-Glo® reagent vial was reconstituted with 100 mL of Cell Titer Glo buffer and 100 μL of prepared reagent was added to each well. After incubating at room temperature for 30 minutes, luminescence was captured using luminescence plate reader (EnVision® Multilabel Plate Reader from Perkin Elmer). Generated data was exported to the excel file and data was analyzed using Graph Pad Prism to calculate IC50 value of the unknown inhibitor.
Compounds were screened against different cancer cell lines [HeLa, DU-145, MCF-7 and SKOV3] for anti-proliferative activity using luminescence based cell proliferation assay using Promega Glo kit are shown in FIG. 3.

[4] = test system: SKOV3 (Ovarian cancer cells); test: Anti-proliferative assay, SKOV3
[5] = Table 1, reference compounds, read-out: IC50 DU-145 cells

SMILES	IC50 ([1]; Homo sapiens, HeLa, Table 1, reference compounds, read-out: IC50 HeLa cells)	IC50 ([1]; Homo sapiens, HeLa, Table 2, reference compounds section, read-out: HeLa IC50)	IC50 ([2]; Homo sapiens, MCF7, Table 1, reference compounds, read-out: IC50 MCF-7 cells)	IC50 ([2]; Homo sapiens, MCF7, Table 2, reference compounds section, read-out: MCF-7 IC50)	IC50 ([3]; Homo sapiens, DU-145, Table 1, reference compounds, read-out: IC50 DU-145 cells)	IC50 ([3]; Homo sapiens, DU-145, Table 2, reference compounds section, read-out: DU-145 IC50)	IC50 ([4]; Homo sapiens, SK-OV-3, Table 1, reference compounds, read-out: IC50 SKOV3 cells)	IC50 ([4]; Homo sapiens, SK-OV-3, Table 2, reference compounds section, read-out: SKOV3 IC50)	IC50 ([1]; Table 1, reference compounds, read-out: IC50 HeLa cells)	IC50 ([2]; Table 1, reference compounds, read-out: IC50 MCF-7 cells)	IC50 [3, 5]	IC50 ([4]; Table 1, reference compounds, read-out: IC50 SKOV3 cells)
COc1ccc(C[C@H](N)C(=O)N[C@H]2[C@@H](O)[C@H](n3cnc4c(N(C)C)ncnc43)O[C@@H]2CO)cc1 [Puromycin]	619 nM	387 nM	408 nM	254 nM	967 nM	382 nM	296 nM	296 nM				
CC(/C=C/C(=O)NO)=C\[C@@H](C)C(=O)c1ccc(N(C)C)cc1 [TSA, Trichostatin A]									124 nM	153 nM	539 nM	242 nM
O=C(CCCCCCC(=O)Nc1ccccc1)NO [SAHA]											796 nM	
